Measured values published in PubChem BioAssay (NCI).
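1) Cells in 96-well plates. 2) Compound, 48 h, 5 concentrations. 3) Linear interpolation between surrounding doses. 4) Unreached endpoint = highest concentration. At the GI50, growth is halved. TGI: concentration producing complete growth inhibition.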

Key:
Experiment in all cases: DTP human tumour cell line panel, 48 h
SR leukemia = system: SR leukemia
SNB-75 CNS = system: SNB-75 CNS
TK-10 renal = system: TK-10 renal
BT-549 breast = system: BT-549 breast
SW-620 colon = system: SW-620 colon
NCI-H460 lung = system: NCI-H460 lung
T-47D breast = system: T-47D breast
SK-OV-3 ovarian = system: SK-OV-3 ovarian
UO-31 renal = system: UO-31 renal
K-562 leukemia = system: K-562 leukemia
CAKI-1 renal = system: CAKI-1 renal
A549 NSCLC = system: A549 NSCLC
HCT-15 colon = system: HCT-15 colon
SF-295 CNS = system: SF-295 CNS
RXF 393 renal = system: RXF 393 renal
NCI/ADR-RES ovarian = system: NCI/ADR-RES ovarian
OVCAR-5 ovarian = system: OVCAR-5 ovarian
IGROV1 ovarian = system: IGROV1 ovarian
SK-MEL-28 melanoma = system: SK-MEL-28 melanoma
MDA-MB-435 = system: MDA-MB-435
M14 melanoma = system: M14 melanoma
NCI-H522 lung = system: NCI-H522 lung
SF-539 CNS = system: SF-539 CNS
DU-145 prostate = system: DU-145 prostate
OVCAR-8 ovarian = system: OVCAR-8 ovarian
A498 renal = system: A498 renal
HL-60(TB) leukemia = system: HL-60(TB) leukemia
OVCAR-4 ovarian = system: OVCAR-4 ovarian
UACC-257 melanoma = system: UACC-257 melanoma
SNB-19 CNS = system: SNB-19 CNS
LOX IMVI melanoma = system: LOX IMVI melanoma
MOLT-4 leukemia = system: MOLT-4 leukemia
RPMI-8226 leukemia = system: RPMI-8226 leukemia
SK-MEL-2 melanoma = system: SK-MEL-2 melanoma
MDA-MB-231 breast = system: MDA-MB-231 breast
HOP-92 NSCLC = system: HOP-92 NSCLC
786-0 renal = system: 786-0 renal
NCI-H23 lung = system: NCI-H23 lung
HOP-62 NSCLC = system: HOP-62 NSCLC
MALME-3M melanoma = system: MALME-3M melanoma
U251 CNS = system: U251 CNS
HS 578T breast = system: HS 578T breast
SF-268 CNS = system: SF-268 CNS
OVCAR-3 ovarian = system: OVCAR-3 ovarian
NCI-H226 lung = system: NCI-H226 lung
CCRF-CEM leukemia = system: CCRF-CEM leukemia
HT29 colon = system: HT29 colon
HCC-2998 colon = system: HCC-2998 colon
MCF7 breast = system: MCF7 breast
ACHN renal = system: ACHN renal
COLO 205 colon = system: COLO 205 colon
HCT-116 colon = system: HCT-116 colon
KM12 colon = system: KM12 colon
SK-MEL-5 melanoma = system: SK-MEL-5 melanoma
EKVX NSCLC = system: EKVX NSCLC
SN12C renal = system: SN12C renal
UACC-62 melanoma = system: UACC-62 melanoma
PC-3 prostate = system: PC-3 prostate

Question: With COc1cc2nccc(Oc3ccc(NC(=O)C4(C(=O)Nc5ccc(F)cc5)CC4)cc3)c2cc1Oc1ccc(N)cn1 as the compound, how does the GI50 (SR leukemia) read?
Answer: 3.25 µM

Question: What about the TGI (SR leukemia) of the same compound?
Answer: > 100 µM

Question: And the GI50 (SNB-75 CNS)?
Answer: 1410 nM

Question: And the TGI (SNB-75 CNS)?
Answer: 4.21 µM

Question: And the GI50 (TK-10 renal)?
Answer: 3.65 µM

Question: What about the TGI (TK-10 renal) of the same compound?
Answer: > 100 µM

Question: What about the GI50 (BT-549 breast) of the same compound?
Answer: 3.8 µM

Question: What about the TGI (BT-549 breast) of the same compound?
Answer: > 100 µM

Question: What about the GI50 (SW-620 colon) of the same compound?
Answer: 2570 nM

Question: And the TGI (SW-620 colon)?
Answer: > 100 µM

Question: And the GI50 (NCI-H460 lung)?
Answer: 3.26 µM

Question: And the TGI (NCI-H460 lung)?
Answer: 18.7 µM

Question: What about the GI50 (T-47D breast) of the same compound?
Answer: 1910 nM

Question: And the TGI (T-47D breast)?
Answer: 9.91 µM

Question: What about the GI50 (SK-OV-3 ovarian) of the same compound?
Answer: 3.52 µM

Question: And the TGI (SK-OV-3 ovarian)?
Answer: > 100 µM

Question: And the GI50 (UO-31 renal)?
Answer: 2360 nM

Question: And the TGI (UO-31 renal)?
Answer: 9.32 µM

Question: What about the GI50 (K-562 leukemia) of the same compound?
Answer: 900 nM

Question: And the TGI (K-562 leukemia)?
Answer: > 100 µM

Question: What about the GI50 (CAKI-1 renal) of the same compound?
Answer: 1850 nM

Question: What about the TGI (CAKI-1 renal) of the same compound?
Answer: 5.48 µM

Question: And the GI50 (A549 NSCLC)?
Answer: 2380 nM

Question: And the TGI (A549 NSCLC)?
Answer: 9.05 µM

Question: And the GI50 (HCT-15 colon)?
Answer: 3.04 µM

Question: What about the TGI (HCT-15 colon) of the same compound?
Answer: > 100 µM

Question: What about the GI50 (SF-295 CNS) of the same compound?
Answer: 254 nM

Question: What about the TGI (SF-295 CNS) of the same compound?
Answer: 4.28 µM

Question: What about the GI50 (RXF 393 renal) of the same compound?
Answer: 1720 nM

Question: What about the TGI (RXF 393 renal) of the same compound?
Answer: 4.72 µM

Question: What about the GI50 (NCI/ADR-RES ovarian) of the same compound?
Answer: 3.83 µM

Question: What about the TGI (NCI/ADR-RES ovarian) of the same compound?
Answer: > 100 µM

Question: What about the GI50 (OVCAR-5 ovarian) of the same compound?
Answer: 2490 nM

Question: And the TGI (OVCAR-5 ovarian)?
Answer: 39 µM

Question: What about the GI50 (IGROV1 ovarian) of the same compound?
Answer: 1360 nM

Question: And the TGI (IGROV1 ovarian)?
Answer: 3.94 µM

Question: What about the GI50 (SK-MEL-28 melanoma) of the same compound?
Answer: 2560 nM

Question: And the TGI (SK-MEL-28 melanoma)?
Answer: 32 µM

Question: And the GI50 (MDA-MB-435)?
Answer: 1830 nM

Question: What about the TGI (MDA-MB-435) of the same compound?
Answer: 6.1 µM

Question: And the GI50 (M14 melanoma)?
Answer: 2660 nM

Question: And the TGI (M14 melanoma)?
Answer: 34.8 µM

Question: What about the GI50 (NCI-H522 lung) of the same compound?
Answer: 2250 nM

Question: What about the TGI (NCI-H522 lung) of the same compound?
Answer: 12.7 µM

Question: What about the GI50 (SF-539 CNS) of the same compound?
Answer: 854 nM

Question: What about the TGI (SF-539 CNS) of the same compound?
Answer: 4.84 µM

Question: What about the GI50 (DU-145 prostate) of the same compound?
Answer: 4.5 µM

Question: What about the TGI (DU-145 prostate) of the same compound?
Answer: > 100 µM

Question: And the GI50 (OVCAR-8 ovarian)?
Answer: 3.77 µM

Question: And the TGI (OVCAR-8 ovarian)?
Answer: > 100 µM

Question: And the GI50 (A498 renal)?
Answer: 1600 nM

Question: And the TGI (A498 renal)?
Answer: 4.33 µM

Question: And the GI50 (HL-60(TB) leukemia)?
Answer: 2260 nM

Question: What about the TGI (HL-60(TB) leukemia) of the same compound?
Answer: 5.23 µM

Question: And the GI50 (OVCAR-4 ovarian)?
Answer: 3.73 µM

Question: And the TGI (OVCAR-4 ovarian)?
Answer: > 100 µM

Question: And the GI50 (UACC-257 melanoma)?
Answer: 2740 nM

Question: And the TGI (UACC-257 melanoma)?
Answer: 51.3 µM

Question: And the GI50 (SNB-19 CNS)?
Answer: 4.49 µM

Question: What about the TGI (SNB-19 CNS) of the same compound?
Answer: > 100 µM

Question: And the GI50 (LOX IMVI melanoma)?
Answer: 1750 nM

Question: And the TGI (LOX IMVI melanoma)?
Answer: 3.49 µM

Question: And the GI50 (MOLT-4 leukemia)?
Answer: 3.12 µM

Question: What about the TGI (MOLT-4 leukemia) of the same compound?
Answer: > 100 µM

Question: And the GI50 (RPMI-8226 leukemia)?
Answer: 3.99 µM

Question: What about the TGI (RPMI-8226 leukemia) of the same compound?
Answer: 78.6 µM

Question: What about the GI50 (SK-MEL-2 melanoma) of the same compound?
Answer: 2500 nM

Question: What about the TGI (SK-MEL-2 melanoma) of the same compound?
Answer: 6.52 µM

Question: And the GI50 (MDA-MB-231 breast)?
Answer: 2440 nM

Question: What about the TGI (MDA-MB-231 breast) of the same compound?
Answer: 8.42 µM

Question: What about the GI50 (HOP-92 NSCLC) of the same compound?
Answer: 49.2 nM

Question: And the TGI (HOP-92 NSCLC)?
Answer: 3.03 µM

Question: And the GI50 (786-0 renal)?
Answer: 3.6 µM

Question: What about the TGI (786-0 renal) of the same compound?
Answer: 94.7 µM

Question: What about the GI50 (NCI-H23 lung) of the same compound?
Answer: 2570 nM

Question: And the TGI (NCI-H23 lung)?
Answer: > 100 µM

Question: What about the GI50 (HOP-62 NSCLC) of the same compound?
Answer: 2830 nM

Question: And the TGI (HOP-62 NSCLC)?
Answer: 84.3 µM

Question: And the GI50 (MALME-3M melanoma)?
Answer: 2090 nM

Question: What about the TGI (MALME-3M melanoma) of the same compound?
Answer: 8.52 µM

Question: And the GI50 (U251 CNS)?
Answer: 2820 nM

Question: And the TGI (U251 CNS)?
Answer: 16.6 µM

Question: And the GI50 (HS 578T breast)?
Answer: 1650 nM

Question: What about the TGI (HS 578T breast) of the same compound?
Answer: 7.39 µM

Question: And the GI50 (SF-268 CNS)?
Answer: 3.11 µM

Question: And the TGI (SF-268 CNS)?
Answer: > 100 µM

Question: What about the GI50 (OVCAR-3 ovarian) of the same compound?
Answer: 3.68 µM

Question: And the TGI (OVCAR-3 ovarian)?
Answer: > 100 µM

Question: What about the GI50 (NCI-H226 lung) of the same compound?
Answer: 1500 nM

Question: What about the TGI (NCI-H226 lung) of the same compound?
Answer: 9.07 µM

Question: And the GI50 (CCRF-CEM leukemia)?
Answer: 3.95 µM

Question: And the TGI (CCRF-CEM leukemia)?
Answer: > 100 µM

Question: What about the GI50 (HT29 colon) of the same compound?
Answer: 1920 nM

Question: And the TGI (HT29 colon)?
Answer: 7.6 µM

Question: And the GI50 (HCC-2998 colon)?
Answer: 2580 nM

Question: And the TGI (HCC-2998 colon)?
Answer: 7.49 µM

Question: And the GI50 (MCF7 breast)?
Answer: 2280 nM

Question: And the TGI (MCF7 breast)?
Answer: > 100 µM

Question: What about the GI50 (ACHN renal) of the same compound?
Answer: 2760 nM

Question: What about the TGI (ACHN renal) of the same compound?
Answer: 10.2 µM

Question: What about the GI50 (COLO 205 colon) of the same compound?
Answer: 2130 nM

Question: What about the TGI (COLO 205 colon) of the same compound?
Answer: 5.64 µM

Question: And the GI50 (HCT-116 colon)?
Answer: 3.33 µM

Question: What about the TGI (HCT-116 colon) of the same compound?
Answer: > 100 µM

Question: What about the GI50 (KM12 colon) of the same compound?
Answer: 44.2 nM

Question: And the TGI (KM12 colon)?
Answer: 3.1 µM

Question: What about the GI50 (SK-MEL-5 melanoma) of the same compound?
Answer: 2030 nM

Question: And the TGI (SK-MEL-5 melanoma)?
Answer: 4.43 µM

Question: And the GI50 (EKVX NSCLC)?
Answer: 3.21 µM

Question: And the TGI (EKVX NSCLC)?
Answer: > 100 µM

Question: And the GI50 (SN12C renal)?
Answer: 1100 nM

Question: What about the TGI (SN12C renal) of the same compound?
Answer: > 100 µM

Question: What about the GI50 (UACC-62 melanoma) of the same compound?
Answer: 1330 nM

Question: What about the TGI (UACC-62 melanoma) of the same compound?
Answer: 7.03 µM

Question: What about the GI50 (PC-3 prostate) of the same compound?
Answer: 3.12 µM

Question: And the TGI (PC-3 prostate)?
Answer: > 100 µM
